Patent publication US6147097A, “Imidazole derivatives as anti-HIV agents” (Shionogi & Co., Ltd., priority 1994, dated 2000)
Values after ≈ are worked out from the molar mass of the structure shown. Where two headings read alike, the source gives them in different places.

Assays:
[1] = target: T1, purified recombinant HIV-1 reverse transcriptase (Human immunodeficiency virus type 1 group M subtype B, UniProt P04585); experiment: reverse transcriptase inhibition, poly(rA)/(dT) template primer, [3H]dTTP uptake; type: biochemical
T1 construct: purified recombinant HIV-1 reverse transcriptase; made in house; host or cells: Escherichia coli
Procedure, shortened: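 Inhibition reported as percent reduction of [3H]dTTP incorporation relative to solvent control, after 1 h at 37 °C at pH 8.3. Recombinant RT from E. coli, poly(rA) template with oligo(dT) primer, 4 μM unlabeled dTTP as substrate; product collected on DEAE filter mats.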

HIV (HTLV-IIIB strain) = experiment: microbe, parasite or virus in culture; type: cell-based; settings: Human immunodeficiency virus 1, IIIB, MT4, 120 h
Procedure, shortened: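 Protection from virus was read as viable-cell MTT conversion to formazan after 5 days at 37° C. The cultures contained MT-4 cells (3.5×10^4/well), compound dilutions and 60 pfu HIV per well.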

[2] = cytotoxicity in MT-4 cells (MTT, culture medium in place of HIV); type: cell-based; settings: human
Procedure, shortened: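 Uninfected readout: compound-treated MT-4 cultures, 3.5×10^4 cells/well, received medium in place of virus and were kept 5 days at 37° C. Viability measured by 1 h MTT reduction, solubilized formazan read at 560/690 nm relative to control wells.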

[3] = MT-4 cells, 60 pfu HIV per well, 37° C., 5 days, MTT, Tables 1 and 2, read-out: EC50
[4] = MT-4 cells, no virus, 37° C., 5 days, MTT, Table 3, read-out: CC50

SMILES | IC50 [1] | EC50 (HIV (HTLV-IIIB strain); [3]) | CC50 at 120 h [2, 4] | EC50 (HIV (HTLV-IIIB strain)) | CC50 at 120 h ([2]; mt-4 cells)
CCn1c(CO)nc(C(C)C)c1Sc1cccc([N+](=O)[O-])c1 [Compound I-23, [1-ethyl-4-isopropyl-5-(3-nitrophenylthio)-1H-imidazol-2-yl]methanol] | 0.996 µM | 0.004 µg/mL (≈ 0.0124 µM) | 25 µg/mL (≈ 77.8 µM) | – | –
CCn1c(CCOC(N)=O)nc(C(C)C)c1Sc1cc(Cl)cc(Cl)c1 [Compound I-137, 2-(2-carbamoyloxyethyl)-5-(3,5-dichlorophenylthio)-1-ethyl-4-isopropyl-1H-imidazole] | 8.2 µM | – | – | 0.004 to 0.008 µg/mL (≈ 0.00994 to 0.0199 µM) | 50 µg/mL (≈ 124 µM)
CCn1c(CO)nc(C(C)C)c1Sc1cc(Cl)cc(Cl)c1 [Compound I-25, 2-[5-(3,5-dichlorophenylthio)-1-ethyl-4-isopropyl-1H-imidazol-2-yl]methanol] | 1.39 µM | 0.004 µg/mL (≈ 0.0116 µM) | 10 to 100 µg/mL (≈ 29 to 290 µM) | – | –
CC(C)c1nc(CO)n(CCc2ccccn2)c1Sc1cc(Cl)cc(Cl)c1 [Compound 112a, 5-(3,5-dichlorophenylthio)-4-isopropyl-2-hydroxymethyl-1-(2-(2-pyridyl)ethyl)-1H-imidazole] | 2.27 µM | 0.008 µg/mL (≈ 0.0189 µM) | – | – | 6.3 µg/mL (≈ 14.9 µM)
CCOC(=O)Cn1c(COCc2ccccc2)nc(C(C)C)c1Sc1cc(Cl)cc(Cl)c1 [Compound 118b] | > 203 µM | 0.25 µg/mL (≈ 0.507 µM) | – | – | 12.5 to 25 µg/mL (≈ 25.3 to 50.7 µM)
C=CCn1c(COC(N)=O)nc(C(C)C)c1Sc1cccc([N+](=O)[O-])c1 [Compound I-48, 1-allyl-2-carbamoyloxymethyl-4-isopropyl-5-(3-nitrophenylthio)-1H-imidazole] | 1.2 µM | 0.016 µg/mL (≈ 0.0425 µM) | 25 to 50 µg/mL (≈ 66.4 to 133 µM) | – | –
Cc1cc(C)cc(Sc2c(C(C)C)nc(CO)n2C)c1 [Compound I-9, [5-(3,5-dimethylphenylthio)-4-isopropyl-1-methyl-1H-imidazol-2-yl]methanol] | 8.26 µM | 0.008 µg/mL (≈ 0.0275 µM) | 10 µg/mL (≈ 34.4 µM) | – | –
C=CCn1c(CO)nc(C(C)C)c1Sc1cccc([N+](=O)[O-])c1 [Compound I-22, [1-allyl-4-isopropyl-5-(3-nitrophenylthio)-1H-imidazol-2-yl]methanol] | 1.68 µM | – | 25 µg/mL (≈ 75 µM) | 0.002 µg/mL (≈ 0.006 µM) | –
CC(C)c1nc(CCCOCc2ccccc2)n(CCO)c1Sc1cc(Cl)cc(Cl)c1 [Compound 136e, 2-(2-(3-benzyloxypropyl)-5-(3,5-dichlorophenylthio)-4-isopropyl-1H-imidazol-1-yl)-ethanol] | > 209 µM | 0.5 to 1 µg/mL (≈ 1.04 to 2.09 µM) | – | – | 6.3 to 12.5 µg/mL (≈ 13.1 to 26.1 µM)
Cc1cc(C)cc(Sc2c(C(C)C)nc(C=O)n2C)c1 [Compound I-6, 5-(3,5-dimethylphenylthio)-4-isopropyl-1-methyl-1H-imidazole-2-carbaldehyde] | 127 µM | 0.03 to 0.06 µg/mL (≈ 0.104 to 0.208 µM) | 10 µg/mL (≈ 34.7 µM) | – | –
CC(C)c1nc(CCOC(N)=O)n(Cc2ccccc2[N+](=O)[O-])c1Sc1cc(Cl)cc(Cl)c1 [Compound 128c, 2-(2-Carbamoyloxyethyl)-5-(3,5-dichlorophenylthio)-4-isopropyl-1-(o-nitrobenzyl)-1H-imidazole] | > 196 µM | 0.25 µg/mL (≈ 0.491 µM) | – | – | 6.3 to 12.5 µg/mL (≈ 12.4 to 24.5 µM)
CC(C)c1nc(CCO)n(Cc2ccccc2[N+](=O)[O-])c1Sc1cc(Cl)cc(Cl)c1 [Compound 126c, 5-(3,5-Dichlorophenylthio)-2-(2-hydroxyethyl)-4-isopropyl-1-o-nitrobenzyl-1H-imidazole] | 60.9 µM | 0.13 µg/mL (≈ 0.279 µM) | – | – | 6.3 µg/mL (≈ 13.5 µM)
CC(C)c1nc(CCCOC(N)=O)n(CCOC(N)=O)c1Sc1cc(Cl)cc(Cl)c1 [Compound I-151, 1-(2-carbamoyloxyethyl)-2-(3-carbamoyloxypropyl)-5-(3,5-dichlorophenylthio)-4-isopropyl-1H-imidazole] | 6.1 µM | 0.0006 µg/mL (≈ 0.00126 µM) | – | – | 50 to 100 µg/mL (≈ 105 to 210 µM)
CC(C)c1nc(CN)n(C(C)C)c1Sc1cc(Cl)cc(Cl)c1 [Compound I-72, 2-aminomethyl-5-(3,5-dichlorophenylthio)-1,4-diisopropylimidazole] | 2.23 µM | 0.03 to 0.06 µg/mL (≈ 0.0837 to 0.167 µM) | 1 to 10 µg/mL (≈ 2.79 to 27.9 µM) | – | –
CC(C)c1nc(CN)n(Cc2ccccn2)c1Sc1cc(Cl)cc(Cl)c1 [Compound I-95] | 1.74 µM | 0.03 to 0.06 µg/mL (≈ 0.0736 to 0.147 µM) | – | – | 6.3 µg/mL (≈ 15.5 µM)
CNC(=S)NCc1nc(C(C)C)c(Sc2cc(Cl)cc(Cl)c2)n1C [Compound I-89, 5-(3,5-dichlorophenylthio)-4-isopropyl-1-methyl-2-(N-methylthiocarbamoyl)aminomethyl-1H-imidazole] | > 248 µM | 1 µg/mL (≈ 2.48 µM) | 1 to 10 µg/mL (≈ 2.48 to 24.8 µM) | – | –

SMILES | IC50 [1] | EC50 (HIV (HTLV-IIIB strain); [3]) | CC50 at 120 h [2, 4] | EC50 (HIV (HTLV-IIIB strain)) | CC50 at 120 h ([2]; mt-4 cells)
CC(C)c1nc(CCO)n(Cc2cccc(N)c2)c1Sc1cc(Cl)cc(Cl)c1 [Compound I-141, I-(m-aminobenzyl)-5-(3,5-dichlorophenylthio)-2-hydroxyethyl-4-isopropyl-1H-imidazole] | 4.12 µM | < 0.008 µg/mL | – | – | 25 to 50 µg/mL (≈ 57.3 to 115 µM)
CC(C)c1nc(CO)n(CCc2ccccc2)c1Sc1cc(Cl)cc(Cl)c1 [Compound I-121, 5-(3,5-dichlorophenylthio)-2-hydroxymethyl-4-isopropyl-1-(2-phenylethyl)-1H-imidazole] | 85.2 µM | 0.06 µg/mL (≈ 0.142 µM) | – | – | 12.5 µg/mL (≈ 29.7 µM)
Cc1nc(C(C)C(=O)O)c(Sc2cccc(Cl)c2)n1C (stereo not drawn) [Compound I-99] | > 322 µM | 6.3 µg/mL (≈ 20.3 µM) | > 100 µg/mL | – | –
CC(C)c1nc(CO)n(C)c1Sc1cccc(Cl)c1 [Compound I-13, [5-(3-chlorophenylthio)-4-isopropyl-1-methyl-1H-imidazol-2-yl]methanol] | 2.7 µM | 0.06 µg/mL (≈ 0.202 µM) | 25 µg/mL (≈ 84.2 µM) | – | –
CNC(=O)OCc1nc(C(C)C)c(Sc2cc(Cl)cc(Cl)c2)n1C [Compound I-43, 5-(3,5-dichlorophenylthio)-4-isopropyl-1-methyl-2-(N-methylcarbamoyl)oxymethyl-1H-imidazole] | 13.6 µM | 0.25 µg/mL (≈ 0.644 µM) | 1 to 10 µg/mL (≈ 2.58 to 25.8 µM) | – | –
CCCn1c(CO)nc(C(C)C)c1Sc1cc(Cl)cc(Cl)c1 [Compound I-26, [5-(3,5-dichlorophenylthio)-4-isopropyl-1-n-propyl-1H-imidazol-2-yl]methanol] | 2.53 µM | – | 10 to 100 µg/mL (≈ 27.8 to 278 µM) | 0.004 to 0.008 µg/mL (≈ 0.0111 to 0.0223 µM) | –
CCCn1c(COC(N)=O)nc(C(C)C)c1Sc1cccc(Cl)c1 [Compound I-54, 2-carbamoyloxymethyl-5-(3-chlorophenylthio)-4-isopropyl-1-n-propyl-1H-imidazole] | 1.25 µM | – | 12.5 µg/mL (≈ 34 µM) | 0.004 µg/mL (≈ 0.0109 µM) | –
CC(C)c1nc(CO)n(Cc2cccs2)c1Sc1cc(Cl)cc(Cl)c1.Cl [Compound I-126, 5-(3,5-dichlorophenylthio)-2-hydroxymethyl-4-isopropyl-1-(2-thienylmethyl)-1H-imidazole hydrochloride] | 30.9 µM | 0.03 µg/mL | – | – | 12.5 to 25 µg/mL
CC(C)c1nc(CO)n(Cc2ccccc2)c1Sc1cc(Cl)cc(Cl)c1 [Compound I-16, [1-benzyl-5-(3,5-dichlorophenylthio)-4-isopropyl-1H-imidazol-2-yl]methanol] | 3.68 µM | 0.008 to 0.016 µg/mL (≈ 0.0196 to 0.0393 µM) | 12.5 to 25 µg/mL (≈ 30.7 to 61.4 µM) | – | –
CC(C)c1nc(CN)n(CC(F)(F)F)c1Sc1cc(Cl)cc(Cl)c1 [Compound I-76, 2-aminomethyl-5-(3,5-dichlorophenylthio)-4-isopropyl-1-(2,2,2-trifluoroethyl)-1H-imidazole] | 8.79 µM | 0.016 µg/mL (≈ 0.0402 µM) | 6.3 to 12.5 µg/mL (≈ 15.8 to 31.4 µM) | – | –
Cc1nc(C(C)C)c(Cc2cc(Cl)cc(Cl)c2)n1C [Compound I-100, 5-(3,5-dichlorobenzyl)-1,2-dimethyl-4-isopropyl-1H-imidazole] | 42.1 µM | 1 µg/mL (≈ 3.36 µM) | 12.5 µg/mL (≈ 42.1 µM) | – | –
CC(C)c1nc(CO)n(CCCc2ccccc2)c1Sc1cc(Cl)cc(Cl)c1 [Compound I-122, 5-(3,5-dichlorophenylthio)-2-hydroxymethyl-4-isopropyl-1-(3-phenylpropyl)-1H-imidazole] | 7.12 µM | 0.008 µg/mL (≈ 0.0184 µM) | – | – | 6.3 to 12.5 µg/mL (≈ 14.5 to 28.7 µM)
CCn1c(CO)nc(C(C)C)c1Sc1cc(F)cc(F)c1 [Compound I-36, [5-(3,5-difluorophenylthio)-1-ethyl-4-isopropyl-1H-imidazol-2-yl]methanol] | 0.576 µM | – | 10 to 100 µg/mL (≈ 32 to 320 µM) | 0.002 µg/mL (≈ 0.0064 µM) | –
CC(C)c1nc(CO)n(Cc2cccc3ccccc23)c1Sc1cc(Cl)cc(Cl)c1.Cl [Compound I-120, 5-(3,5-dichlorophenylthio)-2-hydroxymethyl-4-isopropyl-1-(1-naphthylmethyl)-1H-imidazole hydrochloride] | 99.6 µM | 0.13 µg/mL | – | – | 100 µg/mL
CC(C)c1nc(CCOC(N)=O)n(Cc2ccc(N)cc2)c1Sc1cc(Cl)cc(Cl)c1 [Compound I-140, 1-(p-aminobenzyl)-2-(2-carbamoyloxyethyl)-5-(3,5-dichlorophenylthio)-4-isopropyl-1H-imidazole] | 29.8 µM | 0.03 to 0.06 µg/mL (≈ 0.0626 to 0.125 µM) | – | – | 6.3 to 12.5 µg/mL (≈ 13.1 to 26.1 µM)
C=CCn1c(CO)nc(C(C)C)c1Sc1cc(Cl)cc(Cl)c1 [Compound I-19, [1-allyl-5-(3,5-dichlorophenylthio)-4-isopropyl-1H-imidazol-2-yl]methanol] | 2.02 µM | – | 10 to 100 µg/mL (≈ 28 to 280 µM) | 0.004 to 0.008 µg/mL (≈ 0.0112 to 0.0224 µM) | –
